Results reported in US12539279B2, “Supramolecular ionizable lipid molecules with heteroatomic tuning for nucleic acid delivery” (priority 2023, dated 2026).
Entries after “also recorded” stand apart in the source; their conditions may differ. Where two headings read alike, the source gives them in different places.

Legend:
[1] = tested on: firefly luciferase mRNA expression in liver, spleen, lungs, heart, kidneys; assay: Organ expression of firefly luciferase mRNA after intravenous injection in mice; format: in vivo, BALB/c mice; settings: 6 hours post-dose; for organ in which the highest total flux was measured: intravenous 0.5 μg mRNA
Procedure: (§1) All procedures used in animal studies conducted at the University of Toronto were approved by Institutional Animal Care and Use committee (IACUC) under protocol number 20012621 and comply with all applicable local, provincial, and federal regulations. Female BALB/c mice (7-8 weeks old) were purchased from Charles River Laboratories and acclimated for 1 to 2 weeks before initiation of the study.
Mice (n=3) were injected intravenously (tail vein) with 0.5 μg of formulated firefly luciferase mRNA in 200 μL. At 6 hours post-dose, mice were injected intraperitoneally with 3 mg D-Luciferin (Thermo Scientific 88291) in 200 μL 1×PBS. 5 minutes later, mice were euthanized and key organs (liver, spleen, kidneys, lungs, and heart) were harvested and immediately imaged on an in vivo imaging system (PerkinElmer, IVIS Spectrum) to measure total bioluminescent flux (photons/second). LNPs formulated with compounds I-2, I-4, I-5, I-6, I-8 were tested for their ability to functionally deliver firefly luciferase mRNA to the major organs (liver, spleen, lungs, heart, kidneys) after intravenous injection and were compared to compounds I-12 and SM-102.

[2] = tested on: firefly luciferase protein expression; assay: Intramuscular expression profile of formulated firefly luciferase mRNA in mice (IVIS); format: in vivo, BALB/c mice; settings: intramuscular firefly luciferase mRNA-LNP
Procedure: as §1
Mice (n=4) were injected in both quadriceps with 0.5 μg of formulated firefly luciferase mRNA in 50 μL. At various timepoints (6 hours, 24 hours, 48 hours, and 96 hours post-dose), mice were injected intraperitoneally with 3 mg D-Luciferin (Thermo Scientific 88291) in 200 μL 1×PBS. 5 minutes later, mice were anesthetized and imaged on an in vivo imaging system (PerkinElmer, IVIS Spectrum) to measure total bioluminescent flux (photons/second) in each hindlimb (FIG. 2). The area under curve (AUC) for individual hindlimbs was determined with GraphPad Prism 9.

[3] = format: physicochemical
Procedure: Determination of the apparent pKa of LNPs was carried out using a TNS assay. Briefly, a series of buffers was generated by titrating a solution containing 10 mM citrate, 10 mM phosphate, 10 mM borate, and 150 mM NaCl with 1.0 M HCl. Aliquots of this combined buffer were taken to generate 12 total buffers ranging from pH 4.0 to 9.5 in increments of 0.5 pH. LNPs (diluted to 100 uM of ionizable lipid in distilled water) and 6-(p-toluidino)-2-naphthalenesulfonic acid (TNS, Sigma Aldrich, 60 uM in distilled water) were diluted into these buffers to a final concentration of 9 and 5.45 μM, respectively. The plate was covered and equilibrated at room temperature for 20 min. Fluorescence intensity was determined using a BioTek H1 Synergy plate reader (325 nm excitation/435 nm emission). The raw fluorescence values were fit using GraphPad Prism 8 to determine pKa, which corresponds to the pH value at 50% max fluorescence.

[4] = Pharmacokinetics after intramuscular injection of mRNA-LNPs in mice; format: in vivo, female CD-1 mice; settings: for Kp / half-life / AUC(0-t) / Cmax: female; for half-life / AUC(0-t) / Cmax: CD-1; for half-life: I-12 estimate not considered accurate, read-out: estimated apparent half-life (t1/2) in plasma (converted); for AUC(0-t): read-out: Overall plasma exposure (AUC0-tlast); for Cmax: read-out: maximum plasma concentration (Cmax); for Overall tissue exposure (AUC0-tlast), liver: mouse liver; for Overall tissue exposure (AUC0-tlast), muscle: mouse muscle; for time of peak plasma level: 12.312 μg Compound I-12 or 12.764 μg Compound I-6; for Overall tissue exposure (AUC0-tlast), spleen: mouse spleen; for detection in urine: mouse urine
Procedure: Pharmacokinetic studies in mice were conducted according to Transpharmation Canada Ltd. standard operating procedures (SOPs) and accepted scientific practices but was not in accordance with the principles of Good Laboratory Practice (GLP). Two studies were conducted and have been combined for analysis. Their objective was to determine the concentrations of two ionizable lipids, Compound I-12, and Compound I-6, in plasma, muscle, liver, spleen, urine, and feces following intramuscular (IM) injection of each lipid to groups of female CD-1 mice. All animals received an intramuscular injection of one of the lipids, formulated as lipid nanoparticles (LNPs) with mRNA, into the right quadricep. Doses administered IM were 12.312 μg of Compound I-12 and 12.764 μg of Compound I-6, corresponding to 0.5 μg of mRNA formulated in LNPs. Animals in study 1 were group housed in metabolic cages (n=3 per cage) and euthanized at 6 timepoints (3, 6, 12, 24, 48 and 96 hours) over 4 days-post injection for the collection of blood, liver, spleen, and muscle (n=3/time-point). A single pooled urine and feces sample was also collected from each cage at the appropriate time-point. In study 2, animals were housed in shoebox cages and samples (n=4/time-point) were collected at 6, 12, 24, 48, 96 and 168 hours (Compound I-12 and Compound I-6) and at 21 days (I-12 only, n=3) post-dose. A single pooled feces sample was also collected from each cage at the time of cage changes and weighed following terminal collections. Blood samples were divided for bioanalysis and diagnostic testing. Data from both studies was combined for data analysis. Tandem liquid chromatography-mass spectrometry (LC-MS/MS) methods were developed for the quantification of Compound I-12 and Compound I-6 in mouse plasma, muscle, liver, spleen, urine, and feces. The qualified methods were used to determine the concentration of the analytes in each matrix. The pharmacokinetics (PK) parameters for Compound I-12 and Compound I-6 were estimated from the plasma, muscle, liver, and spleen concentration versus time curves for each animal using Phoenix® WinNonlin 8.3 (Certara, Mountainview, CA).

[5] = format: physicochemical; settings: for time required to have measurable levels of hydrolysis: 2.5 eq. KOH in d4-methanol, 1H NMR
Procedure: Ionizable lipids including compounds described herein (2 μmol) were hydrolyzed with 2.5 eq. of KOH (200 μL, 0.025 M in d4-methanol) in a 3 mm NMR tube. 1H-NMR was acquired with a 700 MHz Agilent DD2 Spectrometer every 5 min for a total of 180 min. Additionally, spectra were acquired at 24 h, 48 h, 72 h, 144 h, 192 h, and 240 h for I-12, ALC-0315, and DLin-MC3-DMA. Data acquisition started ˜10 min after the start of the reaction due to sample preparation and tune/lock/shim. Ester peaks were integrated using MestReNova and normalized to value at t=0 min. The data series were fitted to a one phase decay exponential following y=e, where k is the rate of hydrolysis.

[6] = CD-1, liver, mouse, IM mRNA-LNP, read-out: tissue/plasma AUC ratio, liver
[7] = CD-1, muscle, mouse, IM mRNA-LNP, read-out: tissue/plasma AUC ratio, muscle
[8] = CD-1, spleen, mouse, IM mRNA-LNP, read-out: tissue/plasma AUC ratio, spleen

CCCCCCCCCCN(CCCCCCCCCC)CCCOC(=O)CCN(CCO)CCC(=O)OCCCN(CCCCCCCCCC)CCCCCCCCCC [Compound I-2]
organ in which the highest total flux was measured [1]: liver
fraction of expression in the spleen compared with SM-102 ([1]; intravenous): higher fraction of expression in the spleen than SM-102

CCCCCCCCCCN(CCCCCCCCCC)CCCOC(=O)CCCN(CCO)CCCC(=O)OCCCN(CCCCCCCCCC)CCCCCCCCCC [Compound I-4]
intramuscular expression (in words) [2]: higher intramuscular expression than DLin-MC3-DMA
Apparent pKa [3]: 6-7
organ in which the highest total flux was measured [1]: liver
fraction of expression in the spleen compared with SM-102 ([1]; intravenous): higher fraction of expression in the spleen than SM-102

CCCCCCCCCCN(CCCCCCCCCC)CCCCOC(=O)CCCN(CCO)CCCC(=O)OCCCCN(CCCCCCCCCC)CCCCCCCCCC [Compound I-5]
intramuscular expression (in words) [2]: higher intramuscular expression than DLin-MC3-DMA
Apparent pKa [3]: 6-7
organ in which the highest total flux was measured [1]: spleen
fraction of expression in the spleen compared with SM-102 ([1]; intravenous): higher fraction of expression in the spleen than SM-102

CCCCCCCCCCN(CCCCCCCCCC)CCCOC(=O)CCCCN(CCO)CCCCC(=O)OCCCN(CCCCCCCCCC)CCCCCCCCCC [Compound I-6]
intramuscular expression (in words) [2]: higher intramuscular expression than DLin-MC3-DMA; also recorded: highest intramuscular expression of all compounds tested
Apparent pKa [3]: 6-7
Kp [4, 6]: 46
Kp [4, 7]: 962
Kp [4, 8]: 59
half-life ([4]; mouse plasma, IM mRNA-LNP): 15.3 h
AUC(0-t) ([4]; mouse plasma, IM mRNA-LNP): 1.03 µg·h/mL
Cmax ([4]; mouse plasma, IM mRNA-LNP): 0.108 µg/mL
Overall tissue exposure (AUC0-tlast), liver ([4]; IM mRNA-LNP): 47.0 µg·h/g
Overall tissue exposure (AUC0-tlast), muscle ([4]; IM mRNA-LNP): 994 µg·h/g
time of peak plasma level ([4]; mouse plasma, IM mRNA-LNP): 3 h
Overall tissue exposure (AUC0-tlast), spleen ([4]; IM mRNA-LNP): 61.1 µg·h/g
detection in urine ([4]; IM mRNA-LNP): Neither Compound I-12 nor Compound I-6 were detected in urine
expression compared with SM-102 in spleen and liver ([1]; intravenous): higher expression than SM-102 in the spleen but not in the liver
expression in organs among the compounds related to this disclosure ([1]; intravenous): highest expression in all organs
fraction of expression in the spleen compared with SM-102 ([1]; intravenous): higher fraction of expression in the spleen than SM-102

CCCCCCCCCCN(CCCCCCCCCC)CCCCOC(=O)CCCCN(CCO)CCCCC(=O)OCCCCN(CCCCCCCCCC)CCCCCCCCCC [Compound I-7]
intramuscular expression (in words) [2]: higher intramuscular expression than DLin-MC3-DMA
Apparent pKa [3]: 6-7

CCCCCCCCCCN(CCCCCCCCCC)CCCC(=O)OCCCN(CCO)CCCOC(=O)CCCN(CCCCCCCCCC)CCCCCCCCCC [Compound I-8]
intramuscular expression (in words) [2]: higher intramuscular expression than DLin-MC3-DMA
Apparent pKa [3]: 6-7
organ in which the highest total flux was measured [1]: liver
fraction of expression in the spleen compared with SM-102 ([1]; intravenous): higher fraction of expression in the spleen than SM-102
in vitro degradation rate, faster than Compound I-4 ([5]; 10 mM): ~50%

CCCCCCCCCCN(CCCCCCCCCC)CCNC(=O)CCN(CCO)CCC(=O)NCCN(CCCCCCCCCC)CCCCCCCCCC [Compound I-12]
Kp [4, 6]: 50
Kp [4, 7]: 236
Kp [4, 8]: 28
half-life ([4]; mouse plasma, IM mRNA-LNP): 295 h
AUC(0-t) ([4]; mouse plasma, IM mRNA-LNP): 13.8 µg·h/mL
Cmax ([4]; mouse plasma, IM mRNA-LNP): 0.348 µg/mL
Overall tissue exposure (AUC0-tlast), liver ([4]; IM mRNA-LNP): 694 µg·h/g
Overall tissue exposure (AUC0-tlast), muscle ([4]; IM mRNA-LNP): 3244 µg·h/g
plasma AUC0-tlast, fold greater than Compound I-6 ([4]; mouse plasma, IM mRNA-LNP): ~13 fold
time of peak plasma level ([4]; mouse plasma, IM mRNA-LNP): 6 h
Overall tissue exposure (AUC0-tlast), spleen ([4]; IM mRNA-LNP): 391 µg·h/g
detection in urine ([4]; IM mRNA-LNP): Neither Compound I-12 nor Compound I-6 were detected in urine
excreted in feces ([4]; mouse, after 21 days post-dose): Approximately 18%
organ in which the highest total flux was measured [1]: spleen
time required to have measurable levels of hydrolysis [5]: 10 days

CCCCC/C=C\C/C=C\CCCCCCCCC(CCCCCCCC/C=C\C/C=C\CCCCC)OC(=O)CCCN(C)C [DLin-MC3-DMA]
time required to have measurable levels of hydrolysis [5]: 10 days

CCCCCCCCCCCOC(=O)CCCCCN(CCO)CCCCCCCC(=O)OC(CCCCCCCC)CCCCCCCC [SM-102, reference compound]
organ in which the highest total flux was measured [1]: liver
time to complete degradation (base-catalyzed hydrolysis) ([5]; 10 mM): ≤ 180 min

ALC-0315
time required to have measurable levels of hydrolysis [5]: 10 days
